Test results reported in US12528812B2 (Genentech, Inc., priority 2020, dated 2026).
Like-named read-outs stand apart in the source and are kept apart here.

Legend:
[1] = tested on: IL-13-stimulated STAT6 phosphorylation in human lung bronchial epithelial BEAS-2B cell line; assay: P-STAT6 BEAS-2B + IL-13 cell assay; assay type: cell-based; settings: BEAS2B cells, IL13 stimulation, read-out: Cellular JAK1 PSTAT6 BEAS2B + IL13
Procedure, shortened: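 Phospho-STAT6 (Tyr641) was quantified in lysates by MSD electrochemiluminescence after human IL-13 challenge (250 ng/mL stock, 15 min, 37 °C). Before that, BEAS-2B cells cultured 48 h had 1 h compound exposure over 10 concentrations. Percent of control was fitted to a four-parameter logistic model to give IC50.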

[2] = biological target: Recombinant human JAK2 kinase domain protein (Residues 812-1132) (Homo sapiens, UniProt O60674); assay: JAK2 biochemical assay (LabChip mobility shift, Ki)
[3] = biological target: T1, recombinant human JAK1 kinase domain protein (Residues 854-1154) (Homo sapiens, UniProt P23458); assay: JAK1 biochemical assay (LabChip mobility shift, Ki); settings: read-out: Biochem JAK1 Ki
T1 construct: human JAK1 kinase domain protein (Residues 854-1154); purchased Proteros Biostructures GmbH (Martinsried, Germany); host or cells: insect cells
T1 sequence (P23458 854-1154): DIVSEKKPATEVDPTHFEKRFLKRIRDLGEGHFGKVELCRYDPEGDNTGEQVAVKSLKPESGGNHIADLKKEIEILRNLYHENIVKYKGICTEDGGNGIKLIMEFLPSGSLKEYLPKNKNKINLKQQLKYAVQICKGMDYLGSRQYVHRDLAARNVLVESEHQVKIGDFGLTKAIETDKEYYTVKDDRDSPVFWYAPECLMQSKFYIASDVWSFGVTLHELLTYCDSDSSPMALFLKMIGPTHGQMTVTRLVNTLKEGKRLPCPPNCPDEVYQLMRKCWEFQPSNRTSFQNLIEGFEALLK

Chain of Recombinant human JAK2 kinase domain protein (Residues 812-1132) (O60674 812-1132): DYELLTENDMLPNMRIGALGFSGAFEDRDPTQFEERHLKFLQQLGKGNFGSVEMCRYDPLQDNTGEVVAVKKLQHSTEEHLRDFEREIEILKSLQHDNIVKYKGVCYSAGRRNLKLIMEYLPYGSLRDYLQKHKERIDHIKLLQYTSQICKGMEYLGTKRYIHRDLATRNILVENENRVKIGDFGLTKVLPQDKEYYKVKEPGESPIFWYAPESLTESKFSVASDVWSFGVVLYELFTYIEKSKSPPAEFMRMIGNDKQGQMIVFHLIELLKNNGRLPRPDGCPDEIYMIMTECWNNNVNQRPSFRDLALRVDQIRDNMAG

| SMILES | IC50 ([1]; Homo sapiens, BEAS-2B) | Ki ([2]; Biochem JAK2 Ki) | Ki [3] | IC50 [1] | Ki ([2]; read-out: Biochem JAK2 Ki) |
| --- | --- | --- | --- | --- | --- |
| O=C(Nc1c[nH]nc1-c1cc(Oc2ccc(OCC(F)(F)F)cc2)ccc1OC(F)F)c1cnn2cccnc12 [Example 5, N-[3-[2-(difluoromethoxy)-5-[4-(2,2,2-trifluoroethoxy)phenoxy]phenyl]-1H-pyrazol-4-yl]pyrazolo[1,5-a]pyrimidine-3-carboxamide] | 18 nM | 0.91 nM | 1.1 nM |  |  |
| Cn1cc(NC(=O)c2cnn3cccnc23)c(-c2cc(Oc3ccc(CN4CC[C@@H](CO)C4)cc3)ccc2OC(F)F)n1 (racemic) [Example 172, N-[3-[2-(difluoromethoxy)-5-[4-[[rac-(3R)-3-(hydroxymethyl)pyrrolidin-1-yl]methyl]phenoxy]phenyl]-l-methyl-pyrazol-4-yl]pyrazolo[1,5-a]pyrimidine-3-carboxamide] | 150 nM | 1.4 nM | 6.2 nM |  |  |
| Cn1cc(NC(=O)c2cnn3cccnc23)c(-c2cc(Oc3cccc(CN(CCO)CCO)c3)ccc2OC(F)F)n1 [Example 45, N-[3-[5-[3-[[bis(2-hydroxyethyl)amino]methyl]phenoxy]-2-(difluoromethoxy)phenyl]-1-methyl-pyrazol-4-yl]pyrazolo[1,5-a]pyrimidine-3-carboxamide] | 34 nM | 0.5 nM | 0.58 nM |  |  |
| Cn1cc(NC(=O)c2cnn3cccnc23)c(-c2cc(Oc3ccc(CN)cc3)ccc2OC(F)F)n1 [Example 20, N-[3-[5-[4-(aminomethyl)phenoxy]-2-(difluoromethoxy)phenyl]-1-methyl-pyrazol-4-yl]pyrazolo[1,5-a]pyrimidine-3-carboxamide] | 19 nM | 0.59 nM | 1.5 nM |  |  |
| Cn1cc(NC(=O)c2cnn3cccnc23)c(-c2cc(Oc3cnn(C4CCC4O)c3)ccc2OC(F)F)n1 (stereo not drawn) [Example 135, N-[3-[2-(difluoromethoxy)-5-[1-(2-hydroxycyc1obutyl)pyrazol-4-yl]oxy-phenyl]-1-methyl-pyrazol-4-yl]pyrazolo[1,5-a]pyrimidine-3-carboxamide] |  | 0.16 nM | 0.25 nM | 15 nM |  |
| Cn1cc(NC(=O)c2cnn3cccnc23)c(-c2cc(Oc3cc(C4CC4)cc(C4(O)CNC4)c3)ccc2OC(F)F)n1 [Example 109, N-[3-[5-[3-cyclopropyl-5-(3-hydroxyazetidin-3-yl)phenoxy]-2-(difluoromethoxy)phenyl]-1-methyl-pyrazol-4-yl]pyrazolo[1,5-a]pyrimidine-3-carboxamide] | 250 nM | 0.58 nM | 0.88 nM |  |  |
| CN1CC(O)(c2cccc(Oc3ccc(OC(F)F)c(-c4n[nH]cc4NC(=O)c4cnn5cccnc45)c3)c2)C1 [Example 138, N-[3-[2-(difluoromethoxy)-5-[3-(3-hydroxy-l-methyl-azetidin-3-yl)phenoxy]phenyl]-1H-pyrazol-4-yl]pyrazolo[1,5-a]pyrimidine-3-carboxamide] |  |  | 0.55 nM | 150 nM | 0.4 nM |
| CCN1CC(O)(Cn2cc(Oc3ccc(OC(F)F)c(-c4nn(C)cc4NC(=O)c4cnn5cccnc45)c3)cn2)C1 [Example 207, N-[3-[2-(difluoromethoxy)-5-[1-[(1-ethyl-3-hydroxy-azetidin-3-yl)methyl]pyrazol-4-yl]oxy-phenyl]-1-methyl-pyrazol-4-yl]pyrazolo[1,5-a]pyrimidine-3-carboxamide] | 33 nM | 0.53 nM | 0.73 nM |  |  |
| Cn1cc(NC(=O)c2cnn3cccnc23)c(-c2cc(Oc3cnn(CC4(O)CN5CCC4CC5)c3)ccc2OC(F)F)n1 (stereo not drawn) [Example 199, N-[3-[2-(difluoromethoxy)-5-[1-[(3-hydroxyquinuclidin-3-yl)methyl]pyrazol-4-yl]oxy-phenyl]-1-methyl-pyrazol-4-yl]pyrazolo[1,5-a]pyrimidine-3-carboxamide] |  | 0.43 nM | 0.88 nM | 130 nM |  |
| CC(C)N1CCC(O)(Cn2cc(Oc3ccc(OC(F)F)c(-c4nn(C)cc4NC(=O)c4cnn5cccnc45)c3)cn2)CC1 [Example 209, N-[3-[2-(difluoromethoxy)-5-[1-[(4-hydroxy-1-isopropyl-4-piperidyl)methyl]pyrazol-4-yl]oxy-phenyl]-1-methyl-pyrazol-4-yl]pyrazolo[1,5-a]pyrimidine-3-carboxamide] | 190 nM | 0.48 nM | 0.96 nM |  |  |
| Cn1cc(NC(=O)c2cnn3cccnc23)c(-c2cc(Oc3cccc(C4CNCCO4)c3)ccc2OC(F)F)n1 (racemic) [Example 38, N-[3-[2-(difluoromethoxy)-5-[3-[rac-(2R)-morpholin-2-yl]phenoxy]phenyl]-1-methyl-pyrazol-4-yl]pyrazolo[1,5-a]pyrimidine-3-carboxamide] | 22 nM | 0.38 nM | 0.52 nM |  |  |
| Cc1ccc(Oc2ccc(OC(F)F)c(-c3n[nH]cc3NC(=O)c3cnn4cccnc34)c2)cc1C(=O)N(C)C [Example 10, N-[3-[2-(difluoromethoxy)-5-[3-(dimethylcarbamoyl)-4-methyl-phenoxy]phenyl]-1H-pyrazol-4-yl]pyrazolo[1,5-a]pyrimidine-3-carboxamide] | 42 nM | 0.18 nM | 0.24 nM |  |  |
| O=C(Nc1c[nH]nc1-c1cc(Oc2ccc3c(c2)CNCC3)ccc1OC(F)F)c1cnn2cccnc12 [Example 18, N-[3-[2-(difluoromethoxy)-5-(1,2,3,4-tetrahydroisoquinolin-7-yloxy)phenyl]-1H-pyrazol-4-yl]pyrazolo[1,5-a]pyrimidine-3-carboxamide] | 32 nM | 0.17 nM | 0.17 nM |  |  |
| Cn1cc(NC(=O)c2cnn3cccnc23)c(-c2cc(Oc3ccnc(CN)c3)ccc2OC(F)F)n1 [Example 40, N-[3-[5-[[2-(aminomethyl)-4-pyridyl]oxy]-2-(difluoromethoxy)phenyl]-1-methyl-pyrazol-4-yl]pyrazolo[1,5-a]pyrimidine-3-carboxamide] | 51 nM | 0.77 nM | 0.97 nM |  |  |
